According to patent US12122799B2, “Antibiotics for veterinary staphylococcal infections” (THE GEORGE WASHINGTON UNIVERSITY, A CONGRESSIONALLY …, priority 2018, dated 2024):
Read-outs that look alike come from different tables or passages of the source.

What was measured:
S. schleiferi = experiment: Growth inhibition of Staphylococcus species assay; format: cell-based; conditions: read-out: Bacterial IC50 (Mean ± SD) S.s.
S. pseudintermedius [1] = experiment: Growth inhibition of Staphylococcus species assay; format: cell-based; conditions: read-out: Bacterial IC50 (Mean ± SD) S.p.
S. chromogenes [2] = experiment: Growth inhibition of Staphylococcus species assay; format: cell-based; conditions: read-out: Bacterial IC50 (Mean ± SD) S.c.
recombinant DXR enzyme [3] = experiment: DXR enzyme activity assay; format: biochemical; conditions: recombinant S. chromogenes DXR, n=3; read-out: S. chromogenes IC50 (mean ± SD)
recombinant DXR enzyme [4] = experiment: DXR enzyme activity assay; format: biochemical; conditions: read-out: S. schleiferi IC50 (mean ± SD)
P. falciparum = conditions: read-out: inhibition of P. falciparum growth IC50; cited from earlier work
S. chromogenes [5] = format: cell-based
S. aureus = format: cell-based; conditions: read-out: Bacterial IC50 (Mean ± SD) S.a.
S. schleferi = format: cell-based, S. schleiferi
S. pseudintermedius [6] = format: cell-based
[7] = S. schleiferi growth, LB media, 20 h, OD600

Q: Which IC50 (S. schleiferi; [7]) does the source give for `CC(C)(C)C(=O)OCOP(=O)(/C=C/CN(O)C(=O)CCCc1ccccc1)OCOC(=O)C(C)(C)C` [JXW-168] here?
A: 8700 nM

Q: Which IC50 (S. schleiferi; [7]) does the source give for `CC(C)(C)C(=O)OCOP(=O)(/C=C/CN(O)C(=O)c1ccccc1)OCOC(=O)C(C)(C)C` [JXW-189] here?
A: 1300 nM

Q: Which IC50 (S. pseudintermedius [1]; S. pseudintermedius growth, LB media, 20 h, OD600) does the source give for `COCOCOCOP(=O)(/C=C/CN(O)C=O)OCOCOCOC` [JXW-573] here?
A: 210 ± 40 nM

Q: And the IC50 (S. schleiferi; [7])?
A: 30 nM

Q: And the IC50 (S. chromogenes [2]; S. chromogenes growth, LB media, 20 h, OD600)?
A: 40 nM

Q: And the IC50 (recombinant DXR enzyme [3])?
A: 15200 ± 2360 nM

Q: What about the IC50 (recombinant DXR enzyme [4]; recombinant S. schleiferi DXR, n=3) of the same compound?
A: 12600 ± 1880 nM

Q: With `CC(=O)N(O)C/C=C/P(=O)(OCOC(=O)c1ccccc1)OCOC(=O)c1ccccc1` [KMH-102] as the compound, how does the IC50 (S. schleiferi; [7]) read?
A: 210 ± 50 nM

Q: Which IC50 (P. falciparum) does the source give for `O=CN(O)CCCP(=O)(O)O` [fosmidomycin] here?
A: 90 to 350 nM

Q: What about the IC50 (S. pseudintermedius [1]) of the same compound?
A: 310 ± 40 nM

Q: What about the IC50 (S. schleiferi) of the same compound?
A: 780 ± 130 nM

Q: What about the “bacteriostatic or bactericidal in S. chromogenes” value (S. chromogenes [5]) of the same compound?
A: bacteriostatic

Q: What about the IC50 (S. aureus) of the same compound?
A: > 100000 nM

Q: And the “bacteriostatic or bactericidal in S. schleferi” value (S. schleferi)?
A: bacteriostatic

Q: What about the IC50 (S. chromogenes [2]) of the same compound?
A: 310 ± 10 nM

Q: And the IC50 (recombinant DXR enzyme [4])?
A: 670 ± 60 nM

Q: What about the “bacteriostatic or bactericidal in S. pseudintermedius” value (S. pseudintermedius [6]) of the same compound?
A: bacteriostatic
